Assays:
Acan mRNA in ATDC5 = assay: Cartilage differentiation-related gene expression in chondrogenic cells: Acan (Test Example 7); assay type: cell-based, mouse; details: 500 μM, insulin 0.1 μg/mL, 3 days, normalized to GAPDH, FIG. 21
Description: (§1) The mouse chondrogenic cell line ATDC5 (RIKEN BRC No. RCB0565) was cultured until subconfluence at 37° C. in an atmosphere of 5 vol % CO2 and 95 vol % air in DMEM/F-12 medium supplemented with 5% (w/w) FBS, 1% (w/w) penicillin-streptomycin solution, 5 μg/mL transferrin, and 3×10^−8 M sodium selenite. The cells were collected by trypsin treatment. The collected cells were suspended in fresh DMEM/F-12 medium with the same supplements as above to give a cell suspension (10×10^4 cells/mL). The cell suspension was seeded at a volume of 500 μL in each well of a 24-well plate, and the cells were precultured at 37° C. in an atmosphere of 5 vol % CO2 and 95 vol % air for 2 days. The medium in each well was replaced with fresh DMEM/F-12 medium containing the same supplements as above and the Phe-Hyp dipeptide (at a final concentration of 500 μM) and insulin (at a final concentration of 0.1 μg/mL), and the cells were cultured for 3 days. As a positive control, 10 μg/mL insulin was used. At end of culture, total RNA extraction and cDNA synthesis were performed, the relative mRNA expression levels of cartilage differentiation-related genes were quantified by real-time PCR and were normalized to the GAPDH mRNA expression level, and the results were evaluated. […]

Col X mRNA in ATDC5 = assay: Cartilage differentiation-related gene expression in chondrogenic cells: Col X (Test Example 7); assay type: cell-based, mouse; details: 500 μM, insulin 0.1 μg/mL, 3 days, normalized to GAPDH, FIG. 22
Description: as §1

[1] = test system: mouse chondrogenic cell line ATDC5; assay: Cartilage matrix production by chondrogenic cells, Alcian blue (Test Example 6); assay type: cell-based; details: 500 μM, insulin 0.1 μg/mL, 14 days, FIG. 19
Description: The mouse chondrogenic cell line ATDC5 (RIKEN BRC No. RCB0565) was cultured until subconfluence at 37° C. in an atmosphere of 5 vol % CO2 and 95 vol % air in DMEM/F-12 medium supplemented with 5% (w/w) FBS, 1% (w/w) penicillin-streptomycin solution, 5 μg/mL transferrin, and 3×10^−8M sodium selenite. The cells were collected by trypsin treatment. The collected cells were suspended in fresh DMEM/F-12 medium with the same supplements as above to give a cell suspension (50×10^4 cells/mL). The cell suspension was spot-seeded at a volume of 20 μL in each well of a 24-well plate, and the cells were precultured at 37° C. in an atmosphere of 5 vol % CO2 and 95 vol % air for 3 hours. The medium in each well was replaced with fresh DMEM/F-12 medium containing the same supplements as above and the Phe-Hyp dipeptide (at a final concentration of 500 μM) and insulin (at a final concentration of 0.1 μg/mL), and the cells were cultured for 14 days. The cartilage matrix produced by the chondrogenic cells was stained with Alcian blue staining solution, the stained cartilage matrix was quantified with Image J (National Institutes of Health), and the results were evaluated. The amount of the cartilage matrix produced by the chondrogenic cells in the sample addition group was expressed in terms of a relative value, with the amount of the cartilage matrix in the no sample group taken as 100.

SOX9 mRNA in ATDC5 = assay: Cartilage differentiation-related gene expression in chondrogenic cells: SOX9 (Test Example 7); assay type: cell-based, mouse; details: 500 μM, insulin 0.1 μg/mL, 3 days, normalized to GAPDH, FIG. 20
Description: as §1

has2 mRNA in ATDC5 = assay: Cartilage differentiation-related gene expression in chondrogenic cells: has2 (Test Example 7); assay type: cell-based, mouse; details: 500 μM, insulin 0.1 μg/mL, 3 days, normalized to GAPDH, FIG. 23
Description: as §1

[2] = test system: ex vivo mouse knee joints; assay: Ex vivo hyaluronic acid production in knee joints of mice (Test Example 8); details: 1 mg/mL, one day incubation, ELISA, FIG. 24
Description: DMEM/F-12 medium supplemented with 1 mg/mL Phe-Hyp dipeptide, 5% (w/w) FBS, 1% (w/w) penicillin-streptomycin solution, 5 μg/mL transferrin, and 3×10^−8 M sodium selenite was added to each well of a 24-well plate at a volume of 1 mL per well. The femur and tibia were harvested from the right and left hind legs of ddY mice (female, retired). The synovial membrane was incised to expose the cartilage, and the bones were placed in each well so that only the joint was immersed in the medium. The bones were incubated at 37° C. in an atmosphere of 5 vol % CO2 and 95 vol % air for one day. At end of incubation, the supernatants were recovered and centrifuged at 1500×g at 4° C. for 30 minutes. The supernatants were recovered, the amount of hyaluronic acid was measured by ELISA and the results were evaluated. The amount of the hyaluronic acid in the sample addition group was expressed in terms of a relative value, with the amount of hyaluronic acid in the no sample group taken as 100.

N[C@@H](Cc1ccccc1)C(=O)N1CC(O)C[C@H]1C(=O)O (stereo partly drawn) [Phe-Hyp dipeptide, phenylalanyl-4-hydroxyproline]
Acan mRNA expression level (Acan mRNA in ATDC5): enhanced the expression | Col X mRNA expression level (Col X mRNA in ATDC5): enhanced the expression | cartilage matrix production by chondrogenic cells (Alcian blue) [1]: promoted cartilage matrix production | SOX9 mRNA expression level (SOX9 mRNA in ATDC5): enhanced the expression | has2 mRNA expression level (has2 mRNA in ATDC5): enhanced the expression | amount of hyaluronic acid produced in ex vivo mouse knee joints [2]: promoted ex vivo hyaluronic acid production

Source: patent US11179424B2, “Hyaluronic acid production promoting agent” (Pharma Foods International Co., Ltd., priority 2015, dated 2021)
